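96-well plates; 48 h exposure; 5 concentrations. Endpoints by linear interpolation between flanking doses. Not reached: highest tested concentration assigned. GI50 is the concentration that inhibits growth by half.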 Active and inactive are the calls of the source. No stated cut-off is given here; in the data, active = GI50 up to about 1.1 µM and inactive = higher.
Columns and labels:
Test in all cases: growth of human tumour cells (NCI), 48 h
786-0 = tested on: 786-0
ACHN = tested on: ACHN
CCRF-CEM = tested on: CCRF-CEM
EKVX = tested on: EKVX
HCC 2998 = tested on: HCC 2998
HCT-15 = tested on: HCT-15
HT-29 = tested on: HT-29
IGROV-1 = tested on: IGROV-1
KM12 = tested on: KM12
M19-MEL = tested on: M19-MEL
NCI-H23 = tested on: NCI-H23
OVCAR-4 = tested on: OVCAR-4
RXF 393 = tested on: RXF 393
SN12C = tested on: SN12C
SNB-19 = tested on: SNB-19
SNB-75 = tested on: SNB-75
UO-31 = tested on: UO-31
NCI/ADR-RES = tested on: NCI/ADR-RES
PC-3 = tested on: PC-3

Row | SMILES | GI50 (786-0) | GI50 (ACHN) | GI50 (CCRF-CEM) | GI50 (EKVX) | GI50 (HCC 2998) | GI50 (HCT-15) | GI50 (HT-29) | GI50 (IGROV-1) | GI50 (KM12) | GI50 (M19-MEL) | GI50 (NCI-H23) | GI50 (OVCAR-4) | GI50 (RXF 393) | GI50 (SN12C) | GI50 (SNB-19) | GI50 (SNB-75) | GI50 (UO-31) | GI50 (NCI/ADR-RES) | GI50 (PC-3)
1 | Cc1nc(N)nc(CCC(=O)Nc2cccc(C(F)(F)F)c2)c1-c1ccc(Cl)cc1 | > 100 µM (inactive) | > 100 µM (inactive) | > 100 µM (inactive) | > 100 µM (inactive) | > 100 µM (inactive) | > 100 µM | > 100 µM (inactive) | > 100 µM (inactive) | > 100 µM (inactive) | > 100 µM (inactive) | > 100 µM (inactive) | > 100 µM (inactive) | > 100 µM (inactive) | > 100 µM (inactive) | > 100 µM (inactive) | > 100 µM (inactive) | > 100 µM (inactive) |  | 
2 | NC(=O)N/N=C(\CC1OC(=O)c2ccccc21)c1ccc([N+](=O)[O-])cc1 (stereo not drawn) | 17.6 µM (inactive) | 62.1 µM (inactive) | 31.3 µM (inactive) | 33.8 µM (inactive) | 18 µM (inactive) | 24.5 µM | 40.6 µM (inactive) | 23.7 µM (inactive) | 32.5 µM (inactive) | 26.5 µM (inactive) |  | 39.5 µM (inactive) | 14.9 µM (inactive) | 31 µM (inactive) | 20.7 µM (inactive) | 27.1 µM (inactive) | 76.6 µM (inactive) |  | 
3 | CC(=O)NC1=C(NCC(C)C)C(=O)c2ccccc2C1=O | 14.6 µM (inactive) | > 100 µM (inactive) | 7.18 µM (inactive) | 25 µM (inactive) | > 100 µM (inactive) | 17.7 µM | 41 µM (inactive) | 43.5 µM (inactive) | 42.9 µM (inactive) | 18.7 µM (inactive) | 20 µM (inactive) | 69.2 µM (inactive) | 12.5 µM (inactive) | 16.9 µM (inactive) | 38.3 µM (inactive) | 16.9 µM (inactive) | 18 µM (inactive) |  | 
4 | O=S1(=O)COc2ccccc2-c2ncncc21 | > 100 µM (inactive) | > 100 µM (inactive) | > 100 µM (inactive) | > 100 µM (inactive) | > 100 µM (inactive) | > 100 µM | > 100 µM (inactive) | > 100 µM (inactive) | > 100 µM (inactive) | > 100 µM (inactive) | > 100 µM (inactive) | > 100 µM (inactive) | 1.02 µM (active) | > 100 µM (inactive) | > 100 µM (inactive) | > 100 µM (inactive) | > 100 µM (inactive) |  | 
5 | N#[N+]c1ccccc1Sc1ccc(Cl)cc1 | > 100 µM (inactive) | > 100 µM (inactive) | 89.9 µM (inactive) | > 100 µM (inactive) | > 100 µM (inactive) | > 100 µM | > 100 µM (inactive) | 82.8 µM (inactive) | > 100 µM (inactive) | > 100 µM (inactive) | 47.8 µM (inactive) | > 100 µM (inactive) | 32.2 µM (inactive) |  |  | > 100 µM (inactive) | > 100 µM (inactive) |  | 
6 | C[C@]12CC(C=O)C(=O)C(O)=C1CC[C@@H]1C2CC[C@@]2(C)C1CC[C@]2(C)O (stereo partly drawn) | 16.3 µM (inactive) | 22.3 µM (inactive) | > 10 µM (inactive) | 31.8 µM (inactive) | 10.1 µM (inactive) | 23 µM | 4.66 µM (inactive) | 19.2 µM (inactive) | 25.5 µM (inactive) | 20.1 µM (inactive) | 21.7 µM (inactive) | 13.2 µM (inactive) | 21.4 µM (inactive) | 21.2 µM (inactive) | 25.2 µM (inactive) | 20.6 µM (inactive) | 21.3 µM (inactive) |  | 
7 | C/C(=C1/CCC/C(=C(/C)c2ccccc2)C1=O)c1ccccc1 | 44.4 µM (inactive) | 38.6 µM (inactive) | 22.2 µM (inactive) | 45.8 µM (inactive) | 46.3 µM (inactive) | 31.6 µM | 26.4 µM (inactive) | 79.4 µM (inactive) | 27 µM (inactive) | 24.9 µM (inactive) | 27.5 µM (inactive) | 46.3 µM (inactive) | 17.6 µM (inactive) | 50.7 µM (inactive) | > 100 µM (inactive) | 63.1 µM (inactive) | 44.6 µM (inactive) |  | 
8 | CN(C)/C=N\c1ccn(CCO)c(=O)n1 | > 100 µM (inactive) | > 100 µM (inactive) | > 100 µM (inactive) | > 100 µM (inactive) | > 100 µM (inactive) | > 100 µM | > 100 µM (inactive) | > 100 µM (inactive) | > 100 µM (inactive) | > 100 µM (inactive) | > 100 µM (inactive) | > 100 µM (inactive) | > 100 µM (inactive) | > 100 µM (inactive) | > 100 µM (inactive) | > 100 µM (inactive) | > 100 µM (inactive) |  | 
9 | CCc1cc(Cc2cc(Cl)c(NC(=O)C(=O)C3NC(=O)NC3=O)c(CC)c2)cc(Cl)c1NC(=O)C(=O)C1NC(=O)NC1=O (stereo not drawn) | 42.7 µM (inactive) | 94.4 µM (inactive) | 34.5 µM (inactive) | > 100 µM (inactive) | 42.8 µM (inactive) | 17.3 µM | 26.1 µM (inactive) | > 100 µM (inactive) | > 100 µM (inactive) | 51.3 µM (inactive) | 26.6 µM (inactive) | > 100 µM (inactive) | 22.9 µM (inactive) | 50.8 µM (inactive) | 36.9 µM (inactive) | 30.9 µM (inactive) | > 100 µM (inactive) |  | 
10 | CC(C)(C)OC(=O)N1CC(C)(C)N2C(=O)C3(CCCO3)C12 (stereo not drawn) | > 100 µM (inactive) | > 100 µM (inactive) | 67.1 µM (inactive) | > 100 µM (inactive) | > 100 µM (inactive) | > 100 µM | > 100 µM (inactive) | > 100 µM (inactive) | > 100 µM (inactive) | > 100 µM (inactive) | > 100 µM (inactive) | > 100 µM (inactive) | > 100 µM (inactive) | > 100 µM (inactive) | > 100 µM (inactive) | > 100 µM (inactive) | > 100 µM (inactive) |  | 
11 | CC[C@]12C=CCN3CCC4(c5cc([C@@]6(C(=O)OC)CC7CN(CCc8c6[nH]c6ccccc86)C[C@@H]6CCC[C@H]76)c(OC)cc5N(C)C4[C@](O)(C(=O)OC)C1OC(C)=O)C32 (stereo partly drawn) | 0.316 µM (active) | 0.807 µM (active) | 0.122 µM (active) | 0.968 µM (active) | 0.29 µM (active) | 0.443 µM | 0.103 µM (active) | 0.218 µM (active) | 0.0713 µM (active) | 0.267 µM (active) | 0.116 µM (active) | 0.792 µM (active) | 0.21 µM (active) | 0.423 µM (active) | 0.121 µM (active) | 0.0621 µM (active) | 3.55 µM (inactive) | 1.15 µM (inactive) | 0.0336 µM (active)
12 | Cc1ccc(S(=O)(=O)N2CCCCC2CCO)cc1 (stereo not drawn) | > 100 µM (inactive) | > 100 µM (inactive) | > 100 µM (inactive) | > 100 µM (inactive) | > 100 µM (inactive) | > 100 µM | > 100 µM (inactive) | > 100 µM (inactive) | > 100 µM (inactive) | > 100 µM (inactive) | > 100 µM (inactive) | > 100 µM (inactive) | > 100 µM (inactive) | > 100 µM (inactive) | > 100 µM (inactive) | > 100 µM (inactive) | > 100 µM (inactive) |  | 

Source: ChEMBL document CHEMBL1201862, “PubChem BioAssay data set” (2004)
